According to patent publication US10870647B2, “Imidazopyridine derivative, method for preparing same, and pharmaceutical composition containing same as active ingredient for preventing or treating cancer” (DAEGU-GYEONGBUK MEDICAL INNOVATION FOUNDATION, priority 2016, dated 2020):
Values belong to the compound of their own block, whether it stands above or below them.

Tests used:
Experiment in all cases: Enzyme inhibitory activity (Kd), Reaction Biology Co.
Format in all cases: binding
[1] = biological target: T1, CDK11 (Homo sapiens, UniProt Q9BWU1)
T1 construct: purchased Reaction Biology Co

[2] = biological target: T2, FGR (Homo sapiens, UniProt P09769)
T2 construct: purchased Reaction Biology Co

[3] = biological target: T3, SRC (Homo sapiens, UniProt P12931)
T3 construct: purchased Reaction Biology Co

[4] = biological target: T4, FYN (Homo sapiens, UniProt P06241)
T4 construct: purchased Reaction Biology Co

[5] = biological target: T5, HCK (Homo sapiens, UniProt P08631)
T5 construct: purchased Reaction Biology Co

[6] = biological target: T6, YES (Homo sapiens, UniProt P07947)
T6 construct: purchased Reaction Biology Co

[7] = biological target: T7, LYN (Homo sapiens, UniProt P07948)
T7 construct: purchased Reaction Biology Co

[8] = biological target: T8, EPHB6 (Homo sapiens, UniProt O15197)
T8 construct: purchased Reaction Biology Co
T8 sequence (O15197 32-1021): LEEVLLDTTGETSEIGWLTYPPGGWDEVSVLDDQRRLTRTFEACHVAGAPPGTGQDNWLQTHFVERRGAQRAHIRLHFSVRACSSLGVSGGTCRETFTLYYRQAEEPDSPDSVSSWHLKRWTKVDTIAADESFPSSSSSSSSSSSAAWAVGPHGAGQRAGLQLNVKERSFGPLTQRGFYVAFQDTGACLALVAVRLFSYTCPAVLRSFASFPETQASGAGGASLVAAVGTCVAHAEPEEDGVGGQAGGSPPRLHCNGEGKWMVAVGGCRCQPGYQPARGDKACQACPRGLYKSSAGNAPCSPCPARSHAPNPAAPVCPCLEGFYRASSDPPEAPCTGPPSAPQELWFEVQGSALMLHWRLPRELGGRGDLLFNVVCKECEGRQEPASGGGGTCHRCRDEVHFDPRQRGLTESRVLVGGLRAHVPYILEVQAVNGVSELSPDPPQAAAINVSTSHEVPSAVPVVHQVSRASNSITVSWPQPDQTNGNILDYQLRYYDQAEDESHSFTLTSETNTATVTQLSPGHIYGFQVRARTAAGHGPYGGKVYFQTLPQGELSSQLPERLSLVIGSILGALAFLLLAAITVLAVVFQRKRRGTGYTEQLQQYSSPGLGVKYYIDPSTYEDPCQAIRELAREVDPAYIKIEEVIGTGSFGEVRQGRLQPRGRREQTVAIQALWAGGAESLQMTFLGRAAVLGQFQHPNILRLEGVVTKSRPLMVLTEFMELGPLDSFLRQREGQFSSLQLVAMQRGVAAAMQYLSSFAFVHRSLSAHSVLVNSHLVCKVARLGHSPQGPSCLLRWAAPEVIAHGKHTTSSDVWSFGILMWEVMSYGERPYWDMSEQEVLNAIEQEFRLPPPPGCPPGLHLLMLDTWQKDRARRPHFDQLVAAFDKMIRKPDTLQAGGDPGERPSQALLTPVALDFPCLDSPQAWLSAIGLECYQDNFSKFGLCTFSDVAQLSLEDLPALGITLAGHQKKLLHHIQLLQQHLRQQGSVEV

T3 sequence (P12931 whole entry): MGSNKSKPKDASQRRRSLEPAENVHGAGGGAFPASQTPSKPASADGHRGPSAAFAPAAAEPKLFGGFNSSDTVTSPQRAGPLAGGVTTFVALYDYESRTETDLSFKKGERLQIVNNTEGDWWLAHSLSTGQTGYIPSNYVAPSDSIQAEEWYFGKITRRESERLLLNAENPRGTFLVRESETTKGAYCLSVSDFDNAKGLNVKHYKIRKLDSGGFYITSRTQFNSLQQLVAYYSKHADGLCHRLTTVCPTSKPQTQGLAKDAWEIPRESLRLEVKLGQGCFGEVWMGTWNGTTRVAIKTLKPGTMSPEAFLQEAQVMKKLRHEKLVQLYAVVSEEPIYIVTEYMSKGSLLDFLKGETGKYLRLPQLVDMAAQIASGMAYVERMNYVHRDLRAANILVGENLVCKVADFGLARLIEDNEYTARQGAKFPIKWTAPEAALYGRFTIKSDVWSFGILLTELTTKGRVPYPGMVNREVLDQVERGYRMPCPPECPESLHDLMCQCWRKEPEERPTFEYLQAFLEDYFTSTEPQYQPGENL
T5 sequence (P08631 whole entry): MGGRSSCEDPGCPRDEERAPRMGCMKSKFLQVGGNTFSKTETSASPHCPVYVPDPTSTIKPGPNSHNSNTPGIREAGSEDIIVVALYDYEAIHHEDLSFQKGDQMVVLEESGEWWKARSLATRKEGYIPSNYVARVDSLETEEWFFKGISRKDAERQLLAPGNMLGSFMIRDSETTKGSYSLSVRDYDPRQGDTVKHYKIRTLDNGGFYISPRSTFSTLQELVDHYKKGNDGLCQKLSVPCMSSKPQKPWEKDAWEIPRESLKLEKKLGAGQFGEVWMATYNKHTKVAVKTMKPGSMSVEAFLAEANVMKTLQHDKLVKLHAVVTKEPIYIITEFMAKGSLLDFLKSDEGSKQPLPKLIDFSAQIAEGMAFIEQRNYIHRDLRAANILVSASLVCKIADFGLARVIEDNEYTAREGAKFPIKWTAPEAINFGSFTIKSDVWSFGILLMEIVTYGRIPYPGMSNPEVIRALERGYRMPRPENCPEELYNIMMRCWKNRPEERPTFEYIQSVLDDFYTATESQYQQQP
T1 sequence (Q9BWU1 whole entry): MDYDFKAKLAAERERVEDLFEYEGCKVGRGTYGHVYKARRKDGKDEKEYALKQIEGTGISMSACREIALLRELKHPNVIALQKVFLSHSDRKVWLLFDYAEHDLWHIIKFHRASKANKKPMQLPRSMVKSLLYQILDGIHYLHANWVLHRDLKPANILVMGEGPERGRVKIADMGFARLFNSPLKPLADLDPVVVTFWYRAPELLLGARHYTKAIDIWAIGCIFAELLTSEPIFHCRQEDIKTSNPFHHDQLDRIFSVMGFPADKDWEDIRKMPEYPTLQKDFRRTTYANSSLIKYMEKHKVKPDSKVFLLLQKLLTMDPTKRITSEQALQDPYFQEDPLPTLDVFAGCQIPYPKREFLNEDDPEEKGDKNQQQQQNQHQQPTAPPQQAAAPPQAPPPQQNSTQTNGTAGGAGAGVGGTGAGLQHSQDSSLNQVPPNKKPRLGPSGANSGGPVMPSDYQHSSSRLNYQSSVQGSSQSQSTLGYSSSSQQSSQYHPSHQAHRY
T4 sequence (P06241 whole entry): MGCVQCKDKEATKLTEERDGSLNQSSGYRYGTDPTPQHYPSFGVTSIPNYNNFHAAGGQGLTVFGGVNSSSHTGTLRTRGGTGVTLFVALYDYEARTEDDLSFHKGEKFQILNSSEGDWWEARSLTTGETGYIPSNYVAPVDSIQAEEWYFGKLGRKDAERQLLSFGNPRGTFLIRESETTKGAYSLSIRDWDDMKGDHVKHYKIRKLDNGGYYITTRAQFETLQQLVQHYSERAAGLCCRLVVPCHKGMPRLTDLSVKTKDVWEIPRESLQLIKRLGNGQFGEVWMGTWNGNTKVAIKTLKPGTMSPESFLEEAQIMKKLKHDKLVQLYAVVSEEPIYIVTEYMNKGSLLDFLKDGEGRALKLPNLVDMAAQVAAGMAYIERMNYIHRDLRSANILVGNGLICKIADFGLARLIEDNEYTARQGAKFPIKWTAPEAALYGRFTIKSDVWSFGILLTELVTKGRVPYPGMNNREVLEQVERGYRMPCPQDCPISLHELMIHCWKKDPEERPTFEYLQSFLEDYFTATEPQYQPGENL
T2 sequence (P09769 whole entry): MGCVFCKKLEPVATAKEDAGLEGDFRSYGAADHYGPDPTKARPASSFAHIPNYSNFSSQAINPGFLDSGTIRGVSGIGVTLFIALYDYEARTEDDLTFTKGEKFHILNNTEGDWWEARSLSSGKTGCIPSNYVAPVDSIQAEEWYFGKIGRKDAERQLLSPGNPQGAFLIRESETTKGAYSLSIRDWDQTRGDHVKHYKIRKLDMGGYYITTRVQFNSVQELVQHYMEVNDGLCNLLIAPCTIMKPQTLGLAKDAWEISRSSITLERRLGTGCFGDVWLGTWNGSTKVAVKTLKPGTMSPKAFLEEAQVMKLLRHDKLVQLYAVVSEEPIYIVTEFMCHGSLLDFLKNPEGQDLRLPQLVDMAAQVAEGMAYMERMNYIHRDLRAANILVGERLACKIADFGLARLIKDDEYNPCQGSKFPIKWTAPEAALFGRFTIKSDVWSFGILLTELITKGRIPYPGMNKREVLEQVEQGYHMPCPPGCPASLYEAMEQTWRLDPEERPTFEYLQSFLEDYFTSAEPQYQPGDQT
T7 sequence (P07948 whole entry): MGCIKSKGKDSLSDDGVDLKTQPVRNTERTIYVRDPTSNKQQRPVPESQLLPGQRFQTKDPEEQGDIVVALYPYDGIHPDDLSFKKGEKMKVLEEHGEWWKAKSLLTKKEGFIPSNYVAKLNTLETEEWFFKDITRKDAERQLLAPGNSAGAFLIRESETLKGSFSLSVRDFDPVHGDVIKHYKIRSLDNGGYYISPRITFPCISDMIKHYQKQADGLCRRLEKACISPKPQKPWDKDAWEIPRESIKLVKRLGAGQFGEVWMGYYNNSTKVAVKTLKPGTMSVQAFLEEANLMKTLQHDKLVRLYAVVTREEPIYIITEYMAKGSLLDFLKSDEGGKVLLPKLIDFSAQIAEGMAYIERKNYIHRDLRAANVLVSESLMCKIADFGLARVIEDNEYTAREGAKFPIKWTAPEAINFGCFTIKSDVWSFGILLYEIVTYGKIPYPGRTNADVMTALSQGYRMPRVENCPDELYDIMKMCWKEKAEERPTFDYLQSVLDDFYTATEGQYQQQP
T6 sequence (P07947 whole entry): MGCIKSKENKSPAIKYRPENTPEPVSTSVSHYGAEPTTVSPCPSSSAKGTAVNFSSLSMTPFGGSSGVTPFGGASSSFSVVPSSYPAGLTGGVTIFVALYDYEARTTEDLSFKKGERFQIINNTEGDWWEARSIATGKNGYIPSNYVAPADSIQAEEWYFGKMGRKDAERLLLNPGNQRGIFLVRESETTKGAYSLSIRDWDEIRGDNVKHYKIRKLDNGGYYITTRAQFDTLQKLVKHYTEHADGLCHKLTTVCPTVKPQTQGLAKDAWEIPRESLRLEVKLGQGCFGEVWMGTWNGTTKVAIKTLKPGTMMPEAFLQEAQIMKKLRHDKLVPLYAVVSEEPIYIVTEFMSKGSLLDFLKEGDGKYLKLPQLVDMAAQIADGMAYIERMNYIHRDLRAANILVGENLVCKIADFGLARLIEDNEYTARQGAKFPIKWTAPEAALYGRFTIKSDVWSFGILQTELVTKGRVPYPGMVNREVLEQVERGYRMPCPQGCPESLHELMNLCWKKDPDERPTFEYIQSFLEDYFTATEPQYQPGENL

SMILES: Cc1ccc(C(=O)Nc2ccc(CN3CCN(C)CC3)c(C(F)(F)F)c2)cc1C#Cc1cnc2c(Nc3cnn(C)c3)cccn12 [Example 1, 4-methyl-3-((8-((1-methyl-1H-pyrazol-4-yl)amino)imidazo[1,2-a]pyridin-3-yl)ethynyl)-N-(4-((4-methylpiperazin-1-yl)methyl)-3-(trifluoromethyl)phenyl)benzamide]
- Kd [1]: 140 nM

- Kd [2]: 13 nM
- Kd [3]: 10 nM
- Kd [4]: 52 nM
- Kd [5]: 7.7 nM
- Kd [6]: 17 nM
- Kd [7]: 15 nM
SMILES: CCN1CCN(Cc2ccc(NC(=O)c3ccc(C)c(C#Cc4cnc5c(Nc6cnn(C)c6)cccn45)c3)cc2C(F)(F)F)CC1 [Example 8, N-(4-((4-ethylpiperazin-1-yl)methyl)-3-(trifluoromethyl)phenyl)-4-methyl-3-((8-((1-methyl-1H-pyrazol-4-yl)amino)imidazo[1,2-a]pyridin-3-yl)ethynyl)benzamide]

SMILES: Cc1ccc(NC(=O)C2(C(=O)Nc3ccc(F)cc3)CC2)cc1C#Cc1cnc2c(Nc3cnn(C(C)C)c3)cccn12 [Example 78]
- Kd [8]: 15 nM
